Results as given in the supplement of paper PMC10307832.

Tests used:
Experiment in all cases: relative viability (nuclei count vs DMSO), 5 days (fraction); higher = more cells survive
Entinostat + Alpelisib = compound: Nc1ccccc1NC(=O)c1ccc(CNC(=O)OCc2cccnc2)cc1 [Entinostat] + Cc1nc(NC(=O)N2CCC[C@H]2C(N)=O)sc1-c1ccnc(C(C)(C)C(F)(F)F)c1 [Alpelisib] (partner 2 µM)
Outline: (§1)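 One day after seeding in 1536-well plates, lung cancer cell lines were dosed by pin tool. Dosing was either single-drug or a fixed anchor-drug dose plus five library-drug doses (not always all listed) in √10 steps. After 5 days, nuclei were stained in one fix-and-stain step and counted on 4× images, and relative viability is the nuclei count of treated wells over that of vehicle wells, given as the median of duplicate plates.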

Entinostat + Tozasertib = compound: Nc1ccccc1NC(=O)c1ccc(CNC(=O)OCc2cccnc2)cc1 [Entinostat] + Cc1cc(Nc2cc(N3CCN(C)CC3)nc(Sc3ccc(NC(=O)C4CC4)cc3)n2)n[nH]1 [Tozasertib] (partner 0.1 µM)
Outline: as §1

Entinostat + Navitoclax = compound: Nc1ccccc1NC(=O)c1ccc(CNC(=O)OCc2cccnc2)cc1 [Entinostat] + CC1(C)CCC(c2ccc(Cl)cc2)=C(CN2CCN(c3ccc(C(=O)NS(=O)(=O)c4ccc(N[C@H](CCN5CCOCC5)CSc5ccccc5)c(S(=O)(=O)C(F)(F)F)c4)cc3)CC2)C1 [Navitoclax] (partner 0.5 µM)
Outline: as §1

[1] = compound: C1COCCN1C2=NC(=NC3=C2OC4=C3C=CC=N4)C5=CC(=CC=C5)NC(=O)C6=CN=C(C=C6)N + CC1(C)CCC(c2ccc(Cl)cc2)=C(CN2CCN(c3ccc(C(=O)NS(=O)(=O)c4ccc(N[C@H](CCN5CCOCC5)CSc5ccccc5)c(S(=O)(=O)C(F)(F)F)c4)cc3)CC2)C1 [Navitoclax] (partner 0.5 µM)
Outline: as §1

Cell Line	relative viability (Entinostat + Alpelisib; first compound 0.02 µM)	relative viability (Entinostat + Alpelisib; first compound 0.06325 µM)	relative viability (Entinostat + Alpelisib; first compound 0.2 µM)	relative viability (Entinostat + Alpelisib; first compound 0.6325 µM)	relative viability (Entinostat + Alpelisib; first compound 2 µM)	relative viability (Entinostat + Tozasertib; first compound 0.02 µM)	relative viability (Entinostat + Tozasertib; first compound 0.06325 µM)	relative viability (Entinostat + Tozasertib; first compound 0.2 µM)	relative viability (Entinostat + Tozasertib; first compound 0.6325 µM)	relative viability (Entinostat + Tozasertib; first compound 2 µM)	relative viability (Entinostat + Navitoclax; first compound 0.02 µM)	relative viability (Entinostat + Navitoclax; first compound 0.06325 µM)	relative viability (Entinostat + Navitoclax; first compound 0.2 µM)	relative viability (Entinostat + Navitoclax; first compound 0.6325 µM)	relative viability (Entinostat + Navitoclax; first compound 2 µM)	relative viability ([1]; first compound 0.02 µM)	relative viability ([1]; first compound 0.06325 µM)	relative viability ([1]; first compound 0.2 µM)	relative viability ([1]; first compound 0.6325 µM)	relative viability ([1]; first compound 2 µM)
201T	1.01	1.08	1.02	0.859	0.525	0.898	0.811	0.589	0.501	0.385	1.2	1.16	1.1	0.959	0.779	1.2	1.23	1.14	1.12	1.1
A549	0.851	0.729	0.704	0.515	0.238						1.22	1.21	1.07	0.787	0.395	1.37	1.22	1.13	1.18	0.668
A-427	1.01	1.1	1.05	0.943	0.845	0.213	0.225	0.203	0.182	0.159	1.05	1.01	0.958	0.715	0.669	1	0.964	0.812	0.864	0.835
ABC-1	0.949	1.14	0.966	0.661	0.48	0.175	0.237	0.189	0.2	0.193										
BEN	1.21	0.944	1.02	0.6	0.275	0.476	0.478	0.443	0.356	0.401	0.0534	0.0509	0.0495	0.0765	0.062	0.0527	0.058	0.0742	0.0452	0.0457
CAL-12T	1.22	1.18	1.41	1.08	0.962	0.284	0.364	0.319	0.186	0.206	1.22	1.17	1.41	1.22	1.08	1.06	1.41	1.23	1.11	0.883
COR-L23	0.658	0.632	0.547	0.321	0.175	0.159	0.19	0.198	0.0831	0.0903	0.86	0.8	0.865	0.441	0.123	1.14	1.1	1.05	1.13	0.666
COR-L 105	0.842	0.925	0.844	0.608	0.345	0.372	0.291	0.309	0.273	0.286	0.771	0.911	0.738	0.407	0.333	0.805	0.754	0.69	0.531	0.584
Calu-6	1.01	1.06	0.941	0.624	0.457						0.761	0.859	0.774	0.524	0.308	1.03	1.01	0.846	0.809	0.384
ChaGo-K-1						0.256	0.227	0.211	0.197	0.19	1.23	1.04	1.11	0.783	0.679	0.96	0.863	0.619	1.01	0.839
EBC-1	0.832	0.984	0.542	0.179	0.116						0.422	0.326	0.287	0.184	0.15	0.397	0.368	0.32	0.377	0.234
EKVX	0.942	0.989	0.771	0.48	0.317	0.384	0.414	0.323	0.234	0.192	0.896	0.835	0.899	0.643	0.457	1.17	0.939	0.944	0.805	0.684
EMC-BAC-2	0.797	0.795	0.776	0.636	0.394	0.302	0.254	0.228	0.17	0.229	1.21	1.15	1.25	0.968	0.642	1.21	1.28	1.26	1.12	0.984
EPLC-272H	0.955	0.998	0.795	0.526	0.38	0.265	0.291	0.277	0.154	0.197	1.12	0.956	0.979	0.424	0.365	1.23	1.06	1.13	1.08	0.893
H3255	0.637	0.594	0.548	0.363	0.289	0.48	0.468	0.503	0.315	0.204	0.536	0.453	0.309	0.174	0.121	0.54	0.553	0.533	0.421	0.467
HARA	0.819	0.861	0.658	0.582	0.484	0.121	0.123	0.138	0.117	0.0945	1.18	1.14	1.12	1.09	0.935	1.2	1.17	1.21	1.19	0.897
HCC-15	0.86	0.919	0.705	0.488	0.243	0.306	0.346	0.258	0.0932	0.0635	0.753	0.699	0.58	0.302	0.196	0.678	0.786	0.684	0.605	0.452
